Experiment: xn = mol fraction of the nth substance listed
Details: 101 kPa, Liquid; for speed of sound: Sing-around technique in a fixed-path interferometer; for mass density: Vibrating tube method; for viscosity: Capillary tube (Ostwald / Ubbelohde) method

NCCN [ethane-1,2-diamine] + CCCCCCO
Details	mass density [kg/m3]	speed of sound [m/s]	viscosity [mPa·s]
293.15 K, x1 = 0.0773	824.126	1338.6	–
293.15 K, x1 = 0.1231	827.205	1348.9	–
293.15 K, x1 = 0.1604	829.772	1358.1	–
293.15 K, x1 = 0.1925	831.826	1365.8	–
293.15 K, x1 = 0.2525	835.69	1381	–
293.15 K, x1 = 0.2907	837.925	1390.2	–
293.15 K, x1 = 0.3942	844.247	1417.8	–
293.15 K, x1 = 0.5086	851.229	1450.5	–
293.15 K, x1 = 0.6059	857.577	1482.3	–
293.15 K, x1 = 0.7125	865.791	1522.6	–
293.15 K, x1 = 0.81	874.361	1569	–
293.15 K, x1 = 0.8583	879.425	1596.2	–
293.15 K, x1 = 0.9028	884.825	1623.9	–
293.15 K, x1 = 0.945	890.109	1652.7	–
298.15 K, x1 = 0.0773	820.463	1321.6	4.258
298.15 K, x1 = 0.1213	–	–	4.169
298.15 K, x1 = 0.1231	823.489	1331.9	–
298.15 K, x1 = 0.1604	826.005	1340.9	4.072
298.15 K, x1 = 0.1925	828.015	1348.6	4
298.15 K, x1 = 0.2525	831.807	1363.7	3.832
298.15 K, x1 = 0.2907	833.999	1372.7	3.72
298.15 K, x1 = 0.3942	840.22	1399.9	3.357
298.15 K, x1 = 0.5086	847.107	1432.2	2.926
298.15 K, x1 = 0.6059	853.36	1463.5	2.528
298.15 K, x1 = 0.7125	861.471	1503.1	2.149
298.15 K, x1 = 0.81	869.926	1548.7	1.851
298.15 K, x1 = 0.8583	874.936	1575.4	1.725
298.15 K, x1 = 0.9028	880.277	1602.8	1.619
298.15 K, x1 = 0.945	885.496	1630.9	1.536
303.15 K, x1 = 0.0773	816.783	1304.6	3.578
303.15 K, x1 = 0.1213	819.755	1314.9	3.551
303.15 K, x1 = 0.1604	822.223	1323.9	3.51
303.15 K, x1 = 0.1925	824.193	1331.5	3.452
303.15 K, x1 = 0.2525	827.911	1346.5	3.324
303.15 K, x1 = 0.2907	830.062	1355.4	3.234
303.15 K, x1 = 0.3942	836.182	1382.2	2.91
303.15 K, x1 = 0.5086	842.967	1413.9	2.537
303.15 K, x1 = 0.6059	849.135	1444.7	2.194
303.15 K, x1 = 0.7125	857.138	1483.7	1.88
303.15 K, x1 = 0.81	865.482	1528.5	1.612
303.15 K, x1 = 0.8583	870.432	1554.7	1.506
303.15 K, x1 = 0.9028	875.713	1581.5	1.428
303.15 K, x1 = 0.945	880.874	1609.2	1.336
308.15 K, x1 = 0.0773	813.087	1287.8	3.066
308.15 K, x1 = 0.1213	816.005	1298.2	3.025
308.15 K, x1 = 0.1604	818.427	1307	2.971
308.15 K, x1 = 0.1925	820.356	1314.6	2.923
308.15 K, x1 = 0.2525	824	1329.3	2.814
308.15 K, x1 = 0.2907	826.113	1338.1	2.737
308.15 K, x1 = 0.3942	832.134	1364.6	2.479
308.15 K, x1 = 0.5086	838.821	1395.8	2.174
308.15 K, x1 = 0.6059	844.903	1426.1	1.892
308.15 K, x1 = 0.7125	852.798	1464.4	1.62
308.15 K, x1 = 0.81	861.03	1508.5	1.404
308.15 K, x1 = 0.8583	865.917	1534.1	1.316
308.15 K, x1 = 0.9028	871.143	1560.6	1.241
308.15 K, x1 = 0.945	876.241	1587.7	1.18
313.15 K, x1 = 0.0773	809.362	1271.1	–
313.15 K, x1 = 0.1213	812.228	1281.6	–
313.15 K, x1 = 0.1604	814.602	1290.4	–
313.15 K, x1 = 0.1925	816.496	1297.9	–
313.15 K, x1 = 0.2525	820.069	1312.4	–
313.15 K, x1 = 0.2907	822.144	1321.1	–
313.15 K, x1 = 0.3942	828.065	1347	–
313.15 K, x1 = 0.5086	834.657	1377.9	–
313.15 K, x1 = 0.6059	840.646	1407.5	–
313.15 K, x1 = 0.7125	848.435	1445.3	–
313.15 K, x1 = 0.81	856.554	1488.5	–
313.15 K, x1 = 0.8583	861.384	1513.6	–
313.15 K, x1 = 0.9028	866.55	1539.7	–
313.15 K, x1 = 0.945	871.587	1566.3	–

NCCN [ethane-1,2-diamine] + CCCCCCCCO
Details	mass density [kg/m3]	speed of sound [m/s]	viscosity [mPa·s]
293.15 K, x1 = 0.0595	828.135	1373.2	–
293.15 K, x1 = 0.1021	830.247	1379.6	–
293.15 K, x1 = 0.143	832.248	1386.6	–
293.15 K, x1 = 0.2012	835.047	1396.5	–
293.15 K, x1 = 0.2633	838.043	1407.3	–
293.15 K, x1 = 0.3122	839.349	1412.6	–
293.15 K, x1 = 0.4113	844.656	1433.8	–
293.15 K, x1 = 0.4919	848.413	1450.2	–
293.15 K, x1 = 0.5973	854.134	1475.6	–
293.15 K, x1 = 0.7019	861.054	1508.3	–
293.15 K, x1 = 0.7938	868.882	1546.3	–
293.15 K, x1 = 0.8436	874.136	1573.2	–
293.15 K, x1 = 0.8941	881.269	1609.4	–
293.15 K, x1 = 0.9546	889.526	1651.7	–
298.15 K, x1 = 0.0595	824.621	1356.2	–
298.15 K, x1 = 0.0596	–	–	6.934
298.15 K, x1 = 0.1021	826.683	1362.6	6.834
298.15 K, x1 = 0.143	828.632	1369.4	6.713
298.15 K, x1 = 0.2012	831.36	1379.3	6.457
298.15 K, x1 = 0.2633	834.276	1389.9	6.099
298.15 K, x1 = 0.3122	835.547	1397.8	5.734
298.15 K, x1 = 0.4113	840.743	1415.9	4.957
298.15 K, x1 = 0.4919	844.426	1432	4.251
298.15 K, x1 = 0.5973	850.038	1457.1	3.406
298.15 K, x1 = 0.7019	856.833	1489	2.707
298.15 K, x1 = 0.7938	864.539	1526.5	2.214
298.15 K, x1 = 0.8436	869.72	1551.8	1.985
298.15 K, x1 = 0.8941	876.764	1582.4	1.751
298.15 K, x1 = 0.9546	884.925	1627.9	1.54
303.15 K, x1 = 0.0595	–	1338.9	–
303.15 K, x1 = 0.0596	–	–	5.792
303.15 K, x1 = 0.1021	–	1345.7	5.694
303.15 K, x1 = 0.143	–	1352.5	5.569
303.15 K, x1 = 0.2012	–	1362.3	5.331
303.15 K, x1 = 0.2633	–	1372.1	5.041
303.15 K, x1 = 0.3122	–	1379.9	4.75
303.15 K, x1 = 0.4113	–	1398.3	4.144
303.15 K, x1 = 0.4919	–	1414	3.595
303.15 K, x1 = 0.5973	–	1438.7	2.917
303.15 K, x1 = 0.7019	–	1469.9	2.395
303.15 K, x1 = 0.7938	–	1506.3	1.956
303.15 K, x1 = 0.8436	–	1530.5	1.748
303.15 K, x1 = 0.8941	–	1559.9	1.532
303.15 K, x1 = 0.9546	–	1604.9	1.34
308.15 K, x1 = 0.0595	817.544	1322.8	–
308.15 K, x1 = 0.0596	–	–	4.848
308.15 K, x1 = 0.1021	819.514	1329	4.757
308.15 K, x1 = 0.143	821.37	1335.8	4.662
308.15 K, x1 = 0.2012	823.957	1345.5	4.461
308.15 K, x1 = 0.2633	826.723	1355.7	4.211
308.15 K, x1 = 0.3122	827.934	1360.7	3.975
308.15 K, x1 = 0.4113	832.902	1380.8	3.497
308.15 K, x1 = 0.4919	836.434	1396.4	3.054
308.15 K, x1 = 0.5973	841.825	1420.5	2.515
308.15 K, x1 = 0.7019	848.372	1451.2	2.031
308.15 K, x1 = 0.7938	855.829	1487.3	1.669
308.15 K, x1 = 0.8436	860.863	1512.4	1.5
308.15 K, x1 = 0.8941	867.723	1546.7	1.342
308.15 K, x1 = 0.9546	875.69	1586.8	1.2
313.15 K, x1 = 0.0595	813.972	1306.6	–
313.15 K, x1 = 0.1021	815.903	1313.3	–
313.15 K, x1 = 0.143	817.713	1319.7	–
313.15 K, x1 = 0.2012	820.239	1329	–
313.15 K, x1 = 0.2633	822.931	1339.1	–
313.15 K, x1 = 0.3122	824.111	1343.9	–
313.15 K, x1 = 0.4113	828.963	1363.5	–
313.15 K, x1 = 0.4919	832.42	1378.9	–
313.15 K, x1 = 0.5973	837.701	1402.6	–
313.15 K, x1 = 0.7019	844.123	1432.8	–
313.15 K, x1 = 0.7938	851.455	1468.2	–
313.15 K, x1 = 0.8436	856.411	1492.4	–
313.15 K, x1 = 0.8941	863.18	1526.1	–
313.15 K, x1 = 0.9546	871.049	1565.6	–
